Here are results for 3 compounds from publication PMC8968852, “A New Spectral Shift-Based Method to Characterize Molecular Interactions” (Assay and Drug Development Technologies, 2022).

Where two headings read alike, the source gives them in different places.

In data set [1] the test system is Cy5-labeled 13-mer (5′ Cy5 TTT GGA CTT CAG G 3′). The data set is described as follows: Spectral shift DNA hybridization and van't Hoff analysis. Type of data set: binding. The protocol:
Chemically synthesized DNA oligonucleotides were obtained from Metabion GmbH (Planegg, Germany). A Cy5-labeled 13-mer including a short poly-T spacer in front of a 10 base-long recognition sequence (sequence 5′ Cy5 TTT GGA CTT CAG G 3′) was designed as target and a complementary 10-mer (sequence 3′ CCT GAA GTC C 5′) as ligand. All other chemicals and reagents used in this study were of the highest available analytic grade.
All dual-emission spectral shift measurements in this work were performed in coated capillaries (cat# MO-K025; NanoTemper Technologies GmbH) using the Monolith X instrument equipped with dual-emission detection optics (NanoTemper Technologies GmbH). The required volume per data point was 10 μL. Environment-sensitive near-infrared dyes with an emission maximum at around 660 nm (e.g., RED 2nd Generation dyes, NanoTemper Technologies GmbH, or Cy5) were used as fluorescent reporters. For each ratiometric reading, the fluorescence was recorded simultaneously at 650 and 670 nm for 5 s (Table 1).
Lyophilized DNA oligonucleotides were resuspended in ddH2O to a concentration of 100 μM. Assay buffer (20 mM sodium phosphate buffer, pH 7.2, 100 mM NaCl, 0.05% TWEEN® 20) was prepared as twofold stock. Cy5-labeled 13-mer was further diluted in twofold assay buffer. Serial dilution of 10-mer was performed in ddH2O. The highest final concentration of 10-mer in the 16-point dilution series was 2 μM and the final concentration of Cy5-labeled 13-mer was 2.5 nM with 20 μL in each sample. For ratiometric fluorescence analysis, the device was adjusted to the desired temperature and samples were incubated for 5 min before starting the measurement. Measurements were performed at 23°C to 37°C in 2°C increments and then repeated in reverse order. Capillaries were sealed with Capillary Sealing Paste (cat# PR-P001; NanoTemper Technologies GmbH) to prevent evaporation.
Ratios of the fluorescence intensities at 670 and 650 nm were calculated automatically within the MO.Control software (NanoTemper Technologies GmbH). For Kd determination, dose–response curves were fitted with a binding model that describes a molecular interaction with a 1:1 stoichiometry according to the law of mass action. In this model, the fraction bound f(cligand) at a given ligand concentration cligand in equilibrium is given as (1) fcligand=cligand+ctarget+Kd−cligand+ctarget+Kd^2−4⋅cligand⋅ctarget/2ctarget
Van't Hoff plots were prepared by plotting the logarithm of the dissociation constant, ln Kd, over the inverse temperature, 1/T. A linear regression was then used to calculate thermodynamic parameters according to (5) ΔH=R⋅slope

For the next data set, the system named is GLUT1. Conditions: reported IC50 from cellular assays; cited from earlier work.
Data set [2] has as its target T1, Carbonic Anhydrase II from bovine erythrocytes (bCA-II) (Bos taurus, UniProt P00921).
T1 construct: Carbonic Anhydrase II from bovine erythrocytes; purchased Sigma Aldrich C2522; host or cells: bovine erythrocytes
The data set is described as follows: biochemical. The format is binding.
Protocol: NanoTemper Technologies GmbH) using the Monolith X instrument equipped with dual-emission detection optics (NanoTemper Technologies GmbH). The required volume per data point was 10 μL. Environment-sensitive near-infrared dyes with an emission maximum at around 660 nm (e.g., RED 2nd Generation dyes, NanoTemper Technologies GmbH, or Cy5) were used as fluorescent reporters. […] NanoTemper Technologies GmbH). […] A threefold molar excess of dye was added to the protein, followed by incubation for 30 min at room temperature in the dark. Unreacted dye was removed using the B-Column of the labeling kit. […] Any further dilution steps were carried out in assay buffer supplemented with 4% DMSO. […] After 5 min of incubation, samples were loaded into capillaries and placed into the device. Spectral shift measurements were performed at 25°C. […] In this model, the fraction bound f(cligand) at a given ligand concentration cligand in equilibrium is given as (1)

For data set [3], the target named is bCA-II. Conditions: literature SPR; cited from earlier work.
Data set [4] deals with bCA-II. Conditions: literature ITC; cited from earlier work.
Where [5] appears, read: van't Hoff analysis, 23°C to 37°C.

T1 sequence (P00921 whole entry): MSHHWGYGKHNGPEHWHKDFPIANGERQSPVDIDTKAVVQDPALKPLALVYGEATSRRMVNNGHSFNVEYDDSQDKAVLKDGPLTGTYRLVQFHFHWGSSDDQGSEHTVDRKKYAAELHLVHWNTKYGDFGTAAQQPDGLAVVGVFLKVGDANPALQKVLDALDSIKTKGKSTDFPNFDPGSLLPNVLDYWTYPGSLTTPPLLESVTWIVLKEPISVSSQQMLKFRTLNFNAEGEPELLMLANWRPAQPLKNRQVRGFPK

In the case of “3′ CCT GAA GTC C 5′ (DNA CCTGAAGTCC; chemistry not fully specified; listed 3' to 5') [10-mer, chemically synthesized DNA 10-mer complementary to the Cy5-labeled 13-mer target]”, the Kd came to 1.77 ± 0.06 nM in data set [1] (23 °C); 3.35 ± 0.11 nM in data set [1] (25 °C); 6.52 ± 0.17 nM in data set [1] (27 °C); 12.8 ± 0.3 nM in data set [1] (29 °C); 25.4 ± 0.4 nM in data set [1] (31 °C); 50.4 ± 0.7 nM in data set [1] (33 °C). For the same compound, the Kd in data set [1] (35 °C) was 102 ± 2 nM; in data set [1] (37 °C), 198 ± 4 nM. In addition, the “entropy ΔS” value in data set [1] (setting [5]) is −168.5 cal/mol/K. Also, in data set [1] (setting [5]), the “van't Hoff enthalpy ΔH” value is -61.8 kcal/mol.
On to `Cc1c(NC(=O)c2cc(C(N)=O)nc3cc(F)ccc23)c(C(F)(F)F)nn1Cc1ccc(C#N)cc1` [BAY-876], for which the IC50 in the data set on GLUT1 was […].
Turning to `NS(=O)(=O)c1ccccc1` [Benzenesulfonamide, benzenesulfonamide], the Kd in data set [2] was 502 ± 67 nM; on bCA-II [3], 848 nM; at bCA-II [4] it was 839 nM. In addition, in data set [2] (final value, without bound inhibitor 0.884), the “670 nm/650 nm ratio of labeled bCA-II upon inhibitor binding” value is listed as 0.890.
